Test results published in PubChem BioAssay AID1918938 (Molecular Pharmacology Branch, DTP, NCI, 2023).
pIC50: −log10 of the molar value.

Test system: 556581-035-R-J1-PDC complex spheroid viability
Experiment: Anticancer human tumor 556581-035-R-J1-PDC patient-derived ovarian carcinoma cell line growth inhibition
Conditions: for pIC50: curve of first compound; for viability, T/C: stronger effect = lower value
Procedure, shortened: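 Multicellular complex spheroids of tumor cells with human endothelial cells (HUVEC) and mesenchymal stem cells; the LSD1 inhibitor iadademstat was combined with standard-of-care or investigational agents. Top concentration at or near clinical Cmax, half-log dilutions; final DMSO ≤0.25%.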

[1] = second compound 0.1 µM, first compound 0.000949 µM
[2] = second compound 0.1 µM, first compound 0.003 µM
[3] = second compound 0.1 µM, first compound 0.00949 µM
[4] = second compound 0.1 µM, first compound 0.03 µM
[5] = second compound 0.1 µM, first compound 0.0949 µM
[6] = second compound 0.1 µM, first compound 0.3 µM
[7] = second compound 0.316 µM, first compound 0.000949 µM
[8] = second compound 0.316 µM, first compound 0.003 µM
[9] = second compound 0.316 µM, first compound 0.00949 µM
[10] = second compound 0.316 µM, first compound 0.03 µM
[11] = second compound 0.316 µM, first compound 0.0949 µM
[12] = second compound 0.316 µM, first compound 0.3 µM
[13] = second compound 1 µM, first compound 0.000949 µM
[14] = second compound 1 µM, first compound 0.003 µM
[15] = second compound 1 µM, first compound 0.00949 µM
[16] = second compound 1 µM, first compound 0.03 µM
[17] = second compound 1 µM, first compound 0.0949 µM
[18] = second compound 1 µM, first compound 0.3 µM
[19] = second compound 3.16 µM, first compound 0.000949 µM
[20] = second compound 3.16 µM, first compound 0.003 µM
[21] = second compound 3.16 µM, first compound 0.00949 µM
[22] = second compound 3.16 µM, first compound 0.03 µM
[23] = second compound 3.16 µM, first compound 0.0949 µM
[24] = second compound 3.16 µM, first compound 0.3 µM
[25] = second compound 10 µM, first compound 0.000949 µM
[26] = second compound 10 µM, first compound 0.003 µM
[27] = second compound 10 µM, first compound 0.00949 µM
[28] = second compound 10 µM, first compound 0.03 µM
[29] = second compound 10 µM, first compound 0.0949 µM
[30] = second compound 10 µM, first compound 0.3 µM
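Further: spheroids exposed to agents for seven days.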
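Wherever viability, T/C is given: 100% = DMSO vehicle control wells.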

Work on CCc1c2c(nc3ccc(O)cc13)-c1cc3c(c(=O)n1C2)COC(=O)[C@]3(O)CC + NC1CC1c1ccc(-c2cccc(O)c2)cc1 yielded a pIC50 (second compound 0.1 µM) of over 9.02, a pIC50 (second compound 0.316 µM) of over 9.02 and a pIC50 (second compound 1 µM) of over 9.02. The pIC50 (second compound 3.16 µM) was over 9.02, the pIC50 (second compound 10 µM) was over 9.02 and the viability, T/C [1] was 14.6%. The viability, T/C [2] was 11%, the viability, T/C [3] was 0.89% and the viability, T/C [4] was 0.24%. For the same molecule, the viability, T/C [5] was 0.2%, the viability, T/C [6] was 0.32% and the viability, T/C [7] was 15.4%. The viability, T/C [8] was 11.4%, the viability, T/C [9] was 0.92% and the viability, T/C [10] was 0.23%. For the same molecule, the viability, T/C [11] was 0.17%, the viability, T/C [12] was 0.28% and the viability, T/C [13] was 15.4%. The viability, T/C [14] was 12.1%, the viability, T/C [15] was 1.74% and the viability, T/C [16] was 0.23%. For the same molecule, the viability, T/C [17] was 0.19%, the viability, T/C [18] was 0.27% and the viability, T/C [19] was 13.8%. It also gave a viability, T/C [20] of 11.7%, a viability, T/C [21] of 1.62% and a viability, T/C [22] of 0.26%. The viability, T/C [23] was 0.27%, the viability, T/C [24] was 0.73% and the viability, T/C [25] was 14.4%. It also gave a viability, T/C [26] of 10.7%, a viability, T/C [27] of 1.64% and a viability, T/C [28] of 0.89%. It also gave a viability, T/C [29] of 0.3% and a viability, T/C [30] of 0.37%.

In the case of Nc1ccccc1NC(=O)c1ccc(CNC(=O)OCc2cccnc2)cc1 + NC1CC1c1ccc(-c2cccc(O)c2)cc1, the pIC50 (second compound 0.1 µM) was 7.06, the pIC50 (second compound 0.316 µM) was 7.02 and the pIC50 (second compound 1 µM) was 7.07. It also gave a pIC50 (second compound 3.16 µM) of 7.01, a pIC50 (second compound 10 µM) of 7.03 and a viability, T/C [3] of 91.9%. For the same molecule, the viability, T/C [4] was 77.1%, the viability, T/C [5] was 47.3% and the viability, T/C [6] was 21.1%. For the same molecule, the viability, T/C (second compound 0.1 µM, first compound 0.949 µM) was 6.12%, the viability, T/C (second compound 0.1 µM, first compound 3 µM) was 0.47% and the viability, T/C [9] was 92.1%. It also gave a viability, T/C [10] of 70.1%, a viability, T/C [11] of 54.5% and a viability, T/C [12] of 23.7%. For the same molecule, the viability, T/C (second compound 0.316 µM, first compound 0.949 µM) was 8.22%, the viability, T/C (second compound 0.316 µM, first compound 3 µM) was 0.62% and the viability, T/C [15] was 92.8%. The viability, T/C [16] was 64.3%, the viability, T/C [17] was 55.9% and the viability, T/C [18] was 24.9%. For the same molecule, the viability, T/C (second compound 1 µM, first compound 0.949 µM) was 9.16%, the viability, T/C (second compound 1 µM, first compound 3 µM) was 5.91% and the viability, T/C [21] was 90.2%. For the same molecule, the viability, T/C [22] was 72.7%, the viability, T/C [23] was 51.5% and the viability, T/C [24] was 26.6%. The viability, T/C (second compound 3.16 µM, first compound 0.949 µM) was 10.4%, the viability, T/C (second compound 3.16 µM, first compound 3 µM) was 0.51% and the viability, T/C [27] was 86.5%. It also gave a viability, T/C [28] of 69.1%, a viability, T/C [29] of 46.5% and a viability, T/C [30] of 37.3%. For the same molecule, the viability, T/C (second compound 10 µM, first compound 0.949 µM) was 10.1% and the viability, T/C (second compound 10 µM, first compound 3 µM) was 0.3%.

In the case of Nc1ccn(C2OC(CO)C(O)C2(F)F)c(=O)n1 (stereo not given) + NC1CC1c1ccc(-c2cccc(O)c2)cc1, the pIC50 (second compound 0.1 µM) was 8.88, the pIC50 (second compound 0.316 µM) was 8.85 and the pIC50 (second compound 1 µM) was 8.71. It also gave a pIC50 (second compound 3.16 µM) of 8.76, a pIC50 (second compound 10 µM) of 8.74 and a viability, T/C [1] of 58.8%. The viability, T/C [2] was 28.2%, the viability, T/C [3] was 22.4% and the viability, T/C [4] was 26.8%. It also gave a viability, T/C [5] of 29.3%, a viability, T/C [6] of 27% and a viability, T/C [7] of 60.1%. The viability, T/C [8] was 30.7%, the viability, T/C [9] was 24.3% and the viability, T/C [10] was 25%. For the same molecule, the viability, T/C [11] was 29.3%, the viability, T/C [12] was 27.1% and the viability, T/C [13] was 74%. The viability, T/C [14] was 36.5%, the viability, T/C [15] was 24.2% and the viability, T/C [16] was 25.4%. It also gave a viability, T/C [17] of 29.9%, a viability, T/C [18] of 22.9% and a viability, T/C [19] of 71%. The viability, T/C [20] was 31.3%, the viability, T/C [21] was 28.9% and the viability, T/C [22] was 26.5%. It also gave a viability, T/C [23] of 28.5%, a viability, T/C [24] of 29% and a viability, T/C [25] of 67.2%. It also gave a viability, T/C [26] of 37.3%, a viability, T/C [27] of 34.1% and a viability, T/C [28] of 29.8%. It also gave a viability, T/C [29] of 37.1% and a viability, T/C [30] of 34.1%.

With O=C(c1cc(Cc2n[nH]c(=O)c3ccccc23)ccc1F)N1CCN(C(=O)C2CC2)CC1 + NC1CC1c1ccc(-c2cccc(O)c2)cc1 the pIC50 (second compound 0.1 µM) was under 5.00, the pIC50 (second compound 0.316 µM) was under 5.00 and the pIC50 (second compound 1 µM) was under 5.00. For the same molecule, the pIC50 (second compound 3.16 µM) was under 5.00, the pIC50 (second compound 10 µM) was 5.03 and the viability, T/C (second compound 0.1 µM, first compound 0.0316 µM) was 86.1%. It also gave a viability, T/C (second compound 0.1 µM, first compound 0.1 µM) of 86.2%, a viability, T/C (second compound 0.1 µM, first compound 0.316 µM) of 93.4% and a viability, T/C (second compound 0.1 µM, first compound 1 µM) of 76.6%. The viability, T/C (second compound 0.1 µM, first compound 3.16 µM) was 77.2%, the viability, T/C (second compound 0.1 µM, first compound 10 µM) was 63.4% and the viability, T/C (second compound 0.316 µM, first compound 0.0316 µM) was 92.3%. For the same molecule, the viability, T/C (second compound 0.316 µM, first compound 0.1 µM) was 83.2%, the viability, T/C (second compound 0.316 µM, first compound 0.316 µM) was 74.8% and the viability, T/C (second compound 0.316 µM, first compound 1 µM) was 90.7%. For the same molecule, the viability, T/C (second compound 0.316 µM, first compound 3.16 µM) was 72.2%, the viability, T/C (second compound 0.316 µM, first compound 10 µM) was 67.5% and the viability, T/C (second compound 1 µM, first compound 0.0316 µM) was 86.8%. The viability, T/C (second compound 1 µM, first compound 0.1 µM) was 83.5%, the viability, T/C (second compound 1 µM, first compound 0.316 µM) was 79.3% and the viability, T/C (second compound 1 µM, first compound 1 µM) was 69.9%. For the same molecule, the viability, T/C (second compound 1 µM, first compound 3.16 µM) was 61.5%, the viability, T/C (second compound 1 µM, first compound 10 µM) was 58.8% and the viability, T/C (second compound 3.16 µM, first compound 0.0316 µM) was 84.4%. It also gave a viability, T/C (second compound 3.16 µM, first compound 0.1 µM) of 80.2%, a viability, T/C (second compound 3.16 µM, first compound 0.316 µM) of 84.9% and a viability, T/C (second compound 3.16 µM, first compound 1 µM) of 79.5%. It also gave a viability, T/C (second compound 3.16 µM, first compound 3.16 µM) of 61%, a viability, T/C (second compound 3.16 µM, first compound 10 µM) of 57.4% and a viability, T/C (second compound 10 µM, first compound 0.0316 µM) of 79.1%. It also gave a viability, T/C (second compound 10 µM, first compound 0.1 µM) of 76%, a viability, T/C (second compound 10 µM, first compound 0.316 µM) of 79.2% and a viability, T/C (second compound 10 µM, first compound 1 µM) of 70.6%. For the same molecule, the viability, T/C (second compound 10 µM, first compound 3.16 µM) was 61.6% and the viability, T/C (second compound 10 µM, first compound 10 µM) was 49.4%.
